Where a SMILES comes first, the peptide text is derived from it. [ ]: non-standard residue; d: D form. Dmt = Cc1cc(O)cc(C)c1C[C@H](N)C(=O)O
Test system: LUVs containing 20% TOCL or POPG in POPC background
Experiment: Fluorescent reporters of lipid dynamics and packing (DPH anisotropy, laurdan and prodan GP)
Description: Figure 4. Effects of SS-31 on structural properties of model membranes. […] LUVs composed of 20% anionic lipid (TOCL, MLCL, or POPG) in POPC background were measured in the absence or presence of peptide ([SS-31]/[lipid]^eff = 1:5) as indicated. A, synchrotron SAXS measurements showing background-subtracted scattering density profiles for LUVs in the absence (black) or presence (red) of SS-31. B, ^31P solid-state NMR spectra of LUVs in the absence (bottom spectra) or presence (top spectra) of SS-31. C, SS-31 alters lipid packing interactions. Shown are changes in laurdan and prodan GP values (ΔGP) with increasing [SS-31] for LUVs containing 20% TOCL or POPG in POPC background as indicated. Data and fits in gray show SS-31 fractional saturation (calculated from Fig. 2A, [lipid]^eff = 25 μM). […]
We therefore addressed whether SS-31 altered lipid interactions within these model bilayers. […] Using 1,6-diphenyl-1,3,5-hexatriene (DPH) anisotropy (〈r〉^DPH) as a readout of the fluid dynamics of hydrocarbon tails, we observed no effect of SS-31 in TOCL- or POPG-containing membranes (Fig. S10, D and E). […]
Steady-state fluorescence measurements were performed with a Fluorolog 3-22 spectrofluorometer (HORIBA Jobin-Yvon) equipped with photon-counting electronics, double-grating excitation and emission monochromators, automated Glan–Thompson polarizers, and a 450-watt xenon lamp. […]

## Cc1cc(O)cc(C)c1C[C@H](NC(=O)[C@H](N)CCCNC(=N)N)C(=O)N[C@@H](CCCCN)C(=O)N[C@@H](Cc1ccccc1)C(N)=O [SS-31, D-Arg-2′6′-dimethyl-Tyr-Lys-Phe-NH2] (H-[dR][Dmt]KF-NH2)
TOCL- or POPG-containing membranes
  effect on DPH anisotropy (fluid dynamics of hydrocarbon tails): no effect
Increasing [SS-31], 20% TOCL or POPG LUVs, n = 3
  effect on laurdan and prodan generalized polarization (GP^LAU, GP^PRO): modest, yet repeatable and saturable, increases

Source: publication PMC7247319, “The mitochondria-targeted peptide SS-31 binds lipid bilayers and modulates surface electrostatics as a key component of its mechanism of action” (The Journal of Biological Chemistry, 2020)
